Assay results from ChEMBL document CHEMBL1201862, “PubChem BioAssay data set” (2004).
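Assay format: 96-well plates, 48-hour exposure. Abbreviation: GI50, concentration required for 50% inhibition of growth.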 Calls of active or inactive are those of the source. Rule as the data show it: active = GI50 up to about 1.1 µM and inactive = higher.

Key:
Experiment in all cases: NCI anticancer screen, dose series, 48 h
786-0 = system: 786-0
A498 = system: A498
A549 = system: A549
ACHN = system: ACHN
CAKI-1 = system: CAKI-1
CCRF-CEM = system: CCRF-CEM
COLO 205 = system: COLO 205
DU-145 = system: DU-145
EKVX = system: EKVX
HCC 2998 = system: HCC 2998
HCT-116 = system: HCT-116
HCT-15 = system: HCT-15
HL-60 = system: HL-60
HOP-62 = system: HOP-62
HOP-92 = system: HOP-92
HT-29 = system: HT-29
IGROV-1 = system: IGROV-1
K562 = system: K562
KM12 = system: KM12
LOX IMVI = system: LOX IMVI
M14 = system: M14
MCF7 = system: MCF7
MDA-MB-231 = system: MDA-MB-231
MDA-MB-435 = system: MDA-MB-435
MDA-N = system: MDA-N
MOLT-4 = system: MOLT-4
Malme-3M = system: Malme-3M
NCI-H226 = system: NCI-H226
NCI-H23 = system: NCI-H23
NCI-H460 = system: NCI-H460
NCI-H522 = system: NCI-H522
NCI/ADR-RES = system: NCI/ADR-RES
OVCAR-3 = system: OVCAR-3
OVCAR-4 = system: OVCAR-4
OVCAR-5 = system: OVCAR-5
OVCAR-8 = system: OVCAR-8
PC-3 = system: PC-3
RXF 393 = system: RXF 393
SF-268 = system: SF-268
SF-295 = system: SF-295
SF-539 = system: SF-539
SK-MEL-28 = system: SK-MEL-28
SK-MEL-2 = system: SK-MEL-2
SK-MEL-5 = system: SK-MEL-5
SK-OV-3 = system: SK-OV-3
SN12C = system: SN12C
SNB-19 = system: SNB-19
SNB-75 = system: SNB-75
SR = system: SR
SW-620 = system: SW-620
T47D = system: T47D
TK-10 = system: TK-10
U-251 = system: U-251
UACC-257 = system: UACC-257
UACC-62 = system: UACC-62
UO-31 = system: UO-31
Hs-578T = system: Hs-578T
RPMI-8226 = system: RPMI-8226

Cc1ccc2c(c1)Nc1cc(C(F)(F)F)ccc1[PH]2=O (centres undefined)
GI50 (786-0): 66.4 µM (inactive) | GI50 (A498): 9.53 µM (inactive) | GI50 (A549): 30.4 µM (inactive) | GI50 (ACHN): 16.6 µM (inactive) | GI50 (CAKI-1): 47.4 µM (inactive) | GI50 (CCRF-CEM): 14.9 µM (inactive) | GI50 (COLO 205): 16.1 µM (inactive) | GI50 (DU-145): 45.6 µM (inactive) | GI50 (EKVX): 3.78 µM (inactive) | GI50 (HCC 2998): 44.6 µM (inactive) | GI50 (HCT-116): 42.2 µM (inactive) | GI50 (HCT-15): 43.6 µM | GI50 (HL-60): 29.3 µM (inactive) | GI50 (HOP-62): 29.1 µM (inactive) | GI50 (HOP-92): 14.2 µM (inactive) | GI50 (HT-29): 21.9 µM (inactive) | GI50 (IGROV-1): 25.9 µM (inactive) | GI50 (K562): 13.1 µM (inactive) | GI50 (KM12): 31.5 µM (inactive) | GI50 (LOX IMVI): 26.1 µM (inactive) | GI50 (M14): 65.2 µM (inactive) | GI50 (MCF7): 9.59 µM (inactive) | GI50 (MDA-MB-231): 13.7 µM (inactive) | GI50 (MDA-MB-435): 37.6 µM (inactive) | GI50 (MDA-N): 41.2 µM (inactive) | GI50 (MOLT-4): 11 µM (inactive) | GI50 (Malme-3M): 31.8 µM (inactive) | GI50 (NCI-H226): 21.3 µM (inactive) | GI50 (NCI-H23): 22.2 µM (inactive) | GI50 (NCI-H460): 27.7 µM (inactive) | GI50 (NCI-H522): 21.7 µM (inactive) | GI50 (NCI/ADR-RES): 67.1 µM (inactive) | GI50 (OVCAR-3): 30 µM (inactive) | GI50 (OVCAR-4): 11.6 µM (inactive) | GI50 (OVCAR-5): 50.2 µM (inactive) | GI50 (OVCAR-8): 63.5 µM (inactive) | GI50 (PC-3): 21.7 µM (inactive) | GI50 (RXF 393): 23.2 µM (inactive) | GI50 (SF-268): 34 µM (inactive) | GI50 (SF-295): 5.57 µM (inactive) | GI50 (SF-539): 21.8 µM (inactive) | GI50 (SK-MEL-28): 78.5 µM (inactive) | GI50 (SK-MEL-2): 31 µM (inactive) | GI50 (SK-MEL-5): 15.3 µM (inactive) | GI50 (SK-OV-3): 65.2 µM (inactive) | GI50 (SN12C): 32.8 µM (inactive) | GI50 (SNB-19): 18.9 µM (inactive) | GI50 (SNB-75): 11.8 µM (inactive) | GI50 (SR): 37.4 µM (inactive) | GI50 (SW-620): 23.4 µM (inactive) | GI50 (T47D): 27.6 µM (inactive) | GI50 (TK-10): 57.9 µM (inactive) | GI50 (U-251): 27.2 µM (inactive) | GI50 (UACC-257): 28.2 µM (inactive) | GI50 (UACC-62): 10.5 µM (inactive) | GI50 (UO-31): 0.225 µM (active)

Cc1ncc([N+](=O)[O-])n1CCNCCCn1ccnc1[N+](=O)[O-]
GI50 (786-0): > 100 µM (inactive) | GI50 (A549): > 100 µM (inactive) | GI50 (CCRF-CEM): > 100 µM (inactive) | GI50 (EKVX): > 10 µM (inactive) | GI50 (HCC 2998): > 100 µM (inactive) | GI50 (HCT-116): > 100 µM (inactive) | GI50 (HCT-15): > 100 µM | GI50 (HL-60): > 100 µM (inactive) | GI50 (HOP-62): > 100 µM (inactive) | GI50 (HT-29): > 100 µM (inactive) | GI50 (Hs-578T): > 100 µM (inactive) | GI50 (K562): > 100 µM (inactive) | GI50 (KM12): > 100 µM (inactive) | GI50 (MCF7): > 100 µM (inactive) | GI50 (MOLT-4): > 100 µM (inactive) | GI50 (Malme-3M): > 100 µM (inactive) | GI50 (NCI-H226): > 100 µM (inactive) | GI50 (NCI-H23): > 100 µM (inactive) | GI50 (NCI-H460): > 100 µM (inactive) | GI50 (NCI-H522): > 100 µM (inactive) | GI50 (OVCAR-3): > 100 µM (inactive) | GI50 (OVCAR-5): 75.3 µM (inactive) | GI50 (OVCAR-8): > 100 µM (inactive) | GI50 (PC-3): > 100 µM (inactive) | GI50 (RPMI-8226): > 100 µM (inactive) | GI50 (SF-268): > 100 µM (inactive) | GI50 (SF-295): > 100 µM (inactive) | GI50 (SF-539): > 100 µM (inactive) | GI50 (SK-MEL-28): > 100 µM (inactive) | GI50 (SK-MEL-2): > 100 µM (inactive) | GI50 (SK-MEL-5): > 100 µM (inactive) | GI50 (SN12C): > 100 µM (inactive) | GI50 (SNB-75): > 100 µM (inactive) | GI50 (SR): > 100 µM (inactive) | GI50 (SW-620): > 100 µM (inactive) | GI50 (TK-10): 70.3 µM (inactive) | GI50 (U-251): > 100 µM (inactive) | GI50 (UACC-257): > 100 µM (inactive)

O=CC(O)C(O)C(O)C(O)COP(=O)(O)Cc1ccccc1 (centres undefined)
GI50 (CCRF-CEM): > 10 µM (inactive) | GI50 (COLO 205): > 10 µM (inactive) | GI50 (HL-60): > 10 µM (inactive) | GI50 (IGROV-1): > 10 µM (inactive) | GI50 (M14): > 10 µM (inactive) | GI50 (MDA-MB-435): > 10 µM (inactive) | GI50 (MOLT-4): > 10 µM (inactive) | GI50 (Malme-3M): > 10 µM (inactive) | GI50 (UACC-62): > 10 µM (inactive)

N=C(N)c1ccc(OCCCCCOc2ccc(C(=N)N)cc2)cc1
GI50 (786-0): 13.4 µM (inactive) | GI50 (A549): 6.17 µM (inactive) | GI50 (ACHN): 14.4 µM (inactive) | GI50 (CAKI-1): > 100 µM (inactive) | GI50 (DU-145): 13.6 µM (inactive) | GI50 (EKVX): 18.1 µM (inactive) | GI50 (HCT-116): 14.4 µM (inactive) | GI50 (HCT-15): 16.7 µM | GI50 (HL-60): 15.3 µM (inactive) | GI50 (HOP-62): 16.1 µM (inactive) | GI50 (HOP-92): 32.6 µM (inactive) | GI50 (Hs-578T): 11.5 µM (inactive) | GI50 (K562): 1.92 µM (inactive) | GI50 (LOX IMVI): 12.7 µM (inactive) | GI50 (M14): 15.2 µM (inactive) | GI50 (MCF7): 5.31 µM (inactive) | GI50 (MDA-MB-435): 10.4 µM (inactive) | GI50 (MDA-N): 11.2 µM (inactive) | GI50 (Malme-3M): 13.8 µM (inactive) | GI50 (NCI-H23): 6.71 µM (inactive) | GI50 (NCI-H460): 3.08 µM (inactive) | GI50 (NCI-H522): 6.44 µM (inactive) | GI50 (OVCAR-3): 15.5 µM (inactive) | GI50 (OVCAR-4): 11.2 µM (inactive) | GI50 (OVCAR-5): 22.8 µM (inactive) | GI50 (OVCAR-8): 7.85 µM (inactive) | GI50 (PC-3): 12.1 µM (inactive) | GI50 (SF-268): 12.5 µM (inactive) | GI50 (SK-MEL-28): 10.2 µM (inactive) | GI50 (SK-MEL-2): 17.3 µM (inactive) | GI50 (SN12C): 7.06 µM (inactive) | GI50 (SNB-19): 15.7 µM (inactive) | GI50 (T47D): 7.73 µM (inactive) | GI50 (TK-10): 13.6 µM (inactive) | GI50 (U-251): 9.84 µM (inactive) | GI50 (UACC-62): 11.5 µM (inactive)
